In PMC6201930 (PLoS ONE, 2018):
Several values for one entry are separate records, joined by “and”; a condition that tells them apart may be missing. Equal entries are not always repeated. Where two headings read alike, the source gives them in different places.

Tests used:
[1] = tested on: tGFP-CFTR542X-HA-HIS construct (codon 542 UGA) in 293H cells; experiment: tGFP-542X readthrough assay (HA-HIS MSD immunoassay); type: cell-based, human
[2] = tested on: activated human peripheral blood mononuclear cells (PBMCs); experiment: Cytotoxicity in stimulated PBMCs (CellTitre-Glo ATP); settings: read-out: Stimulated PBMC CC50, individual determinations (S1 File)
Excerpt: (§1) When considering compounds for potential readthrough therapy it is important to monitor cellular and animal safety. In order to determine the most promising compounds to further evaluate in in vivo safety, we measured cytotoxicity in two different cell types. We used activated human peripheral blood mononuclear cells (PBMCs) (Table 2 and Fig 2D and 2E). PBMCs are a primary cell that when activated with phytohaemagglutinin (PHA) expand quickly and are commonly used as an in vitro surrogate for rapidly growing cells in the human body to evaluate cytotoxicity. Prior to advancing compounds into human studies, safety evaluation in rodents is performed. As an in vitro surrogate for rodent toxicity, we used primary mouse myoblasts.
(§2) Frozen human Peripheral Blood Mononuclear Cells (PBMCs) were obtained from […] (Alameda, CA, Cat# PB003F) from a single donor. […] Plates were incubated at 37°C with 5% CO2 for 4 hours prior to compound treatment. Compounds were serially diluted and added to the plates. Plates were incubated at 37°C, 5% CO2 incubator, for 72 hours prior to determinations of ATP levels. Cell viability was determined using a chemiluminescent assay to monitor adenosine triphosphate (ATP) levels in live cells (CellTitre-Glo; CTG; Promega, Cat#G7571). Methods were performed per the manufacturer’s instructions.

[3] = as above; settings: human
Excerpt: as §1, §2

[4] = Cytotoxicity in myoblasts; settings: mouse, primary mouse myoblasts
Excerpt: as §1

[5] = Neuromast toxicity assay (DASPEI staining); settings: zebrafish, zebrafish embryos 5 dpf, neuromasts (hair cells), other: embryos exposed to the drug in 24-well plates
Description: All neuromast cytotoxicity assays were done at Biobide–BBD Biophenix SL (Gipuzkoa, Spain). […] Compounds were tested at 5 doses. After 24 hours of exposure embryos were incubated in DASPEI (2-(4-(dimethylamino)styryl) -N-Ethylpyridinium Iodide) for neuromast staining. Images of each embryo were taken and neuromasts counted. A compound was classified as ototoxic when the number of neuromasts in the treated group was less than that in the untreated control group (One Way ANOVA, multiple comparisons vs. vehicle).

[6] = tested on: p53 R213* UGA premature termination codon in HDQ-P1 mammary carcinoma cells; experiment: HDQ-p53UGA213 readthrough assay (full-length p53, MSD immunoassay); type: cell-based, human; settings: for HDQ-p53UGA213 (Maxfold): maximum readthrough activity above background
Description: We utilized HDQ-P1 mammary carcinoma cells, which are homozygous for R213*, a UGA premature termination codon in the gene for the tumor suppressor protein p53 [30]. […] Western blot hybridization and Meso Scale Discovery (MSD) immunoassay detection of p53 were done as previously described. […] Cells (45K per well) were grown in 96-well plates and treated with compounds for 24 hours. […] Cells were lysed with 60 μl per well of lysis buffer (20 mM Tris-HCL, pH 7.5, 1 mM EGTA, 1 mM EDTA,150 mM Nacl, 0.5% Triton X100) for one hour at room temperature and 30 μl of lysate per well were transferred to the coated plate and incubated overnight at 4 °C. […] Plates were then washed three times with PBS-T and 30 μl of 0.25 μ/ml goat anti-rabbit IgG-Sulfo-tag antibody (MSD) in TBS-C was added and incubated for 1 hour at room temperature. Plates were then washed three times with PBS-T and 150 μl read buffer (MSD) was added. Plates were read immediately in a SECTOR S 600 (MSD).

[7] = tested on: fLuc mRNA harboring a UGA nonsense mutation at codon 190 (fLuc-190-NS); type: biochemical, rabbit
Excerpt: ThefLuc-190-NS assay is an in vitro rabbit reticulocyte lysate translation of an fLuc mRNA harboring a UGA nonsense mutation at codon 190 (fLuc-190-NS). It is believed that positively charged aminoglycosides are poorly taken up by cells, and we used this cell-free readthrough assay to eliminate the potential variable of cell uptake when measuring readthrough potency. […] Readthrough protein was detected using a HA-HIS MSD immunoassay described previously.
This cell-free translation assay used synthetic LUC mRNAs harboring an EMCV IRES and LUC codon 190-UGA premature stop codon prepared using the MegaScript in vitro transcription kit (Ambion). Translation reactions were done with the Rabbit Reticulocyte Lysate System (Promega) with 100 ng RNA and increasing concentrations of aminoglycosides. The amount of luminescence produced was determined after approximately 4 hours using a Viewlux CCD imager (Perkin-Elmer). Fold suppression over background was calculated as (aminoglycoside light units/PBS light units).

[8] = 293H cells, 24 hours, average ± SD
[9] = individual experiments (S1 File)
[10] = individual experiments (S1 File), unit not printed for EC5X (EC2X of the sheet in uM)
[11] = maximum readthrough above background, average ± SD
[12] = Stimulated PBMC CC50, AVERAGE (S1 File)
[13] = Myoblast CC50, AVERAGE (S1 File)
[14] = Myoblast CC50, individual determinations (S1 File)
[15] = Neuromast CC50, AVERAGE (S1 File)
[16] = Neuromast CC50, individual determinations (S1 File)
[17] = concentration required to double the level of full-length p53 protein, average ± SD, at least three experiments, highest concentration 300 μM
[18] = individual experiments (S1 File), max fold
[19] = AVERAGE (S1 File), unit not given for EC5X
[20] = individual experiments (S1 File), listed as PTC-0302307 (C1)
[21] = individual experiments (S1 File), unit not printed for EC5X (EC2X of the sheet in uM), listed as PTC-0302307 (C1)

Compound | tGFP-542X EC2X [1, 8] | tGFP-542X EC2X ([1]; AVERAGE (S1 File)) | tGFP-542X Maxfold ([1]; AVERAGE (S1 File)) | tGFP-542X EC2X [1, 9] | tGFP-542X Maxfold [1, 9] | tGFP-542X EC5X [1, 10] | tGFP-542X Maxfold [1, 11] | CC50 at 24 h [5, 15] | CC50 at 24 h [5, 16] | HDQ-p53UGA213 EC2X ([6]; AVERAGE (S1 File)) | HDQ-p53UGA213 max ([6]; AVERAGE (S1 File)) | HDQ-p53UGA213 EC2X [6, 17] | HDQ-p53UGA213 (Maxfold) ([6]; average ± SD) | fLuc-190-NS EC2X ([7]; AVERAGE (S1 File)) | fLuc-190-NS MaxFold ([7]; AVERAGE (S1 File)) | fLuc-190-NS EC5X [7, 19] | fLuc-190-NS EC2X ([7]; cell-free, average ± SD) | fLuc-190-NS MaxFold ([7]; cell-free, average ± SD) | fLuc-190-NS EC2X [7, 9] | fLuc-190-NS MaxFold [7, 9] | other results
CN[C@@H]1[C@@H](O)[C@@H](O[C@@H]2[C@@H](O)[C@H](O[C@H]3O[C@H](CO)[C@@H](O)[C@H](O)[C@H]3N)[C@@H](N)C[C@H]2N)OC[C@H]1O [Gentamicin A, gentamicin A] | 385 ± 123 µM | 385.2 µM | 3.8 | 490.42 µM and 415.81 µM and 249.27 µM | 3.32 and 4.14 and 3.99 | >1000 | 4 ± 0.4 fold | 17 µM | 17 µM | 585.5 µM | 2.7 | 586 ± 100 µM | 3 ± 0.4 fold | 0.45 µM | 6.7 | 2.0 | 0.45 ± 0.015 µM | 6.7 ± 0.4 fold | 0.44 µM and 0.47 µM and 0.45 µM | 6.38 and 6.62 and 7.20 | CC50 [2]: > 1250 µM and 3620 µM; CC50 at 72 h [3, 12]: 3620 µM; CC50 [4, 13]: 6210 µM; CC50 [4, 14]: 6210 µM; HDQ-p53UGA213 EC2X [6, 9]: 658.30 µM and 626.86 µM and 471.32 µM; HDQ-p53UGA213 max [6, 18]: 2.50 and 3.24 and 2.45; fLuc-190-NS EC5X [7, 10]: 1.95 and 2.14
CN[C@@H]1[C@@H](O)[C@@H](O[C@@H]2[C@@H](O)[C@H](O[C@H]3O[C@H]([C@@H](C)NC)CC[C@H]3N)[C@@H](N)C[C@H]2N)OC[C@]1(C)O [Gentamicin C1, gentamicin C1] | 439 ± 192 µM | 439.1 µM | 3.4 |  |  |  | 3 ± 2 fold | 9.4 µM | 9.4 µM | 311.4 µM | 4.8 | 311 ± 321 µM | 5 ± 3 fold | 1.1 µM | 18.9 | 2.6 | 1.061 ± 0.262 µM | 19 ± 2 fold |  |  | tGFP-542X EC5X [1, 19]: 825.7; tGFP-542X EC2X [1, 20]: 303 µM and 575 µM and >1000 µM; tGFP-542X Maxfold [1, 20]: 6 and 2 and 1.70; tGFP-542X EC5X [1, 21]: 826 and >1000; CC50 ([2]; listed as PTC-0302307 (C1)): > 1000 µM; CC50 at 72 h ([3]; Stimulated PBMC CC50, individual determinations (S1 File)): > 1250 µM; HDQ-p53UGA213 EC2X ([6]; concentration required to double the level of full-length p53 protein, average ± SD, at least three experiments, highest concentration 300 μM, listed as C1): triple digit; HDQ-p53UGA213 EC2X [6, 20]: 74.03 µM and 776.89 µM and 269.47 µM and 125.28 µM; HDQ-p53UGA213 max ([6]; individual experiments (S1 File), max fold, listed as PTC-0302307 (C1)): 6.40 and 2.10 and 2.50 and 8.00; fLuc-190-NS EC2X [7, 20]: 1.36 µM and 0.90 µM and 0.92 µM; fLuc-190-NS MaxFold [7, 20]: 18.25 and 17.61 and 20.78; fLuc-190-NS EC5X [7, 21]: 2.89 and 2.68 and 2.37
CN[C@@H]1[C@@H](O)[C@@H](O[C@@H]2[C@@H](O)[C@H](O[C@H]3O[C@H]([C@H](C)N)CC[C@H]3N)[C@@H](N)C[C@H]2N)OC[C@]1(C)O [Gentamicin C2a, gentamicin C2a] | 583 ± 110 µM | 582.8 µM | 2.8 | 691 µM and 586 µM and 471.89 µM | 2.62 and 2.35 and 3.32 | >1000 | 3 ± 0.5 fold | 2.7 µM | 2.7 µM | 251.7 µM | 4.2 | 252 ± 49 µM | 4 ± 1 fold | 1.1 µM | 32.1 | 2.8 | 1.077 ± 0.029 µM | 32 ± 5 fold | 1.08 µM and 1.10 µM and 1.05 µM | 26.96 and 33.13 and 36.29 | CC50 [2]: > 1250 µM; CC50 at 72 h [3, 12]: 6710 µM; CC50 [4, 13]: 5680 µM; CC50 [4, 14]: 4640 µM; HDQ-p53UGA213 EC2X ([6]; concentration required to double the level of full-length p53 protein, average ± SD, at least three experiments, highest concentration 300 μM, listed as C2a): triple digit; HDQ-p53UGA213 EC2X [6, 9]: 217.36 µM and 286.09 µM; HDQ-p53UGA213 max [6, 18]: 3.40 and 5.00; fLuc-190-NS EC5X [7, 10]: 2.91 and 2.75 and 2.60
CN[C@@H]1[C@@H](O)[C@@H](O[C@@H]2[C@@H](O)[C@H](O[C@H]3OC(CN)=CC[C@H]3N)[C@@H](N)C[C@H]2N)OC[C@]1(C)O [Sisomycin] | >1000 µM |  | 1.3 | >1000 µM | 1.27 and 1.38 and 1.37 | >1000 | 1 ± 0.1 fold |  |  |  |  |  |  | 2.6 µM | 4.0 |  | 2.596 ± 0.428 µM | 4 ± 0.5 fold | 2.96 µM and 2.70 µM and 2.13 µM | 3.55 and 3.95 and 4.47 | fLuc-190-NS EC5X [7, 10]: >30
